In brackets after ≈: the same amount, converted by molar mass. Structures can show the parent of a compound that is named as a salt. Where two headings read alike, the source gives them in different places.
How the values were obtained:
M. mycetomatis [1] = test: In vitro susceptibility, averages over M. mycetomatis isolates (average metabolic activity at 2 µM, mean MIC); type: cell-based; details: Madurella mycetomatis, 96 h, 4 days at 37°C, CellTiter-Glo, average of 3 isolates, 20% or below = inhibition
Method: M. mycetomatis isolate MM55 was used to screen the Oncode library. This strain was kindly provided by Prof. […] The three M. mycetomatis isolates were identified by ITS sequencing and maintained at −80°C at Erasmus MC. Prior to in vitro screening, isolates were cultured on Sabouraud agar plates (BD, Erembodegem, Belgium) at 37°C.
The Oncode Drug Repurposing library was based on the drug repurposing library from the Drug Repurposing Hub of the Broad Institute and recreated by the Oncode institute.[13] […] Each well of the 384-well plates contained 0.6 µL of a 200 µM stock concentration of compound, resulting in a final concentration of 2 µM when the fungus was added. […] Furthermore, this concentration could also be reached in the G. mellonella larvae.[8],[11] The prepared 384-well plates were transferred on dry ice to the Erasmus MC and stored at −80°C until they were screened.
Each plate also contained a growth control (60 µL of M. mycetomatis hyphal suspension, plus 0.6 µL of DMSO) and a negative control (60 µL of culture medium, plus 0.6 µL of DMSO). Plates were then incubated for 4 days at 37°C, after which 30 µL of CellTiter-Glo 3D Cell Viability reagent was added to every well.[19] After 25 min of incubation at room temperature, the luminescence was measured with a CytoFluor Series 4000 luminometer (PerSeptive Biosystems, Framingham, MA, USA). To determine the metabolic activity, the following formula was used:
Percentagemetabolicactivity=(Absorbancetestluminensence−AbsorbanceNCluminensence/AbsorbanceGCluminensence−AbsorbanceNCluminensence)×100
where, GC is growth control and NC is negative control. The luminescence measured for the GC is considered as 100% metabolic activity. The luminescence for the NC is considered as 0% metabolic activity.

[2] = system: M. mycetomatis strain mm55; test: IC50 and MIC determination, CellTiter-Glo, strain mm55; type: cell-based, Madurella mycetomatis; details: for IC50: concentration inhibiting 50% of fungal hyphae growth; for MIC: concentration with complete growth inhibition
M. mycetomatis strain P1 = test: IC50 and MIC determination, CellTiter-Glo, strain P1; type: cell-based, Madurella mycetomatis
M. mycetomatis strain I1 = test: IC50 and MIC determination, CellTiter-Glo, strain I1; type: cell-based, Madurella mycetomatis
[3] = system: healthy uninfected G. mellonella larvae; details: for Toxicity in G. mellonella larvae at concentrations as low as 0.5 µM: tested at 20, 10, 5, 1 and 0.5 µM
Method: (§1) For in vivo experiments, sixth-week instar G. mellonella larvae were purchased from Blue-Lagoon, Maassluis, The Netherlands. The larvae were raised and kept in the dark at room temperature. Larvae without any discoloration and weighing around 500 mg were selected for experiments.
To determine the toxicity, 15 healthy uninfected larvae were injected with 20 µL of 20 µM compound as previously described.[16] […] As a control, a separate group of larvae were injected with 20 µL of PBS. Larvae were housed in Petri dishes with Whatman paper at 37°C in the dark. Survival was monitored for 10 days.

[4] = system: M. mycetomatis MM55-infected G. mellonella larvae; test: Therapeutic efficacy in M. mycetomatis-infected G. mellonella larvae (survival, log-rank); type: in vivo, Galleria mellonella
Method: as §1
The wet weight was determined and 10 mL of PBS per gram of mycelia was added. The suspension was then sonicated for 2 min to achieve a particle size of 10 µm. The fungal suspension (4 mg/40 µL) was injected into the last left pro-leg of a healthy G. mellonella larva with an insulin 29G U-100 needle to reach a final inoculum of 4 mg/larva. Larvae were placed in Petri dishes containing Whatman paper in a 37°C incubator.
A control group was also included in which M. mycetomatis-infected larvae were treated with PBS or with 1 mg/kg amphotericin B (Fungizone, Bristol Myers Squibb, Utrecht, The Netherlands). […] The treatment was repeated at 28 h post infection and 52 h post infection via different prolegs. The infection was monitored for 10 days.
To compare the survival rates between PBS treatment control and the different experimental groups a log-rank test was performed. All data were processed and performed in GraphPad Prism 10.

M. mycetomatis [5] = test: In vitro susceptibility, averages over M. mycetomatis isolates (average metabolic activity at 2 µM, mean MIC); type: cell-based, Madurella mycetomatis; details: for Average metabolic activity at 2 µM (%): 4 days at 37°C, CellTiter-Glo, average of 3 isolates, 20% or below = inhibition
[6] = system: M. mycetomatis-infected G. mellonella larvae; details: M. mycetomatis-infected G. mellonella larvae; cited from earlier work
[7] = 20 µL of 10 µM at 4, 28 and 52 h post infection, 10 days

`OCCCNc1cc(-c2ccnc(Nc3cccc(Cl)c3)n2)ccn1` [cgp60474] gave an activity at 2 µM (M. mycetomatis [1]) of 7.4%, an IC50 ([2]; Madurella mycetomatis) of 1.55 µM and an MIC ([2]; Madurella mycetomatis) of 2 µM (≈ 0.712 µg/mL). The IC50 (M. mycetomatis strain P1; Madurella mycetomatis, P1) was 0.64 µM, the MIC (M. mycetomatis strain P1; Madurella mycetomatis, P1) was 1 µM (≈ 0.356 µg/mL) and the IC50 (M. mycetomatis strain I1; Madurella mycetomatis, I1) was 0.81 µM. For the same molecule, the MIC (M. mycetomatis strain I1; Madurella mycetomatis, I1) was 1 µM (≈ 0.356 µg/mL), the “Toxicity in G. mellonella larvae at 20 µM” value ([3]; in vivo) was “not toxic” and the “Survival of M. mycetomatis-infected larvae versus PBS” value ([4]; 20 µL of 20 µM at 4, 28 and 52 h post infection, 10 days) was “No prolonged survival”.

For `CCCCC(CC)CNC(=N)NC(=N)NCCCCCCNC(=N)NC(=N)NCC(CC)CCCC` (stereo not shown) [Alexidine dihydrochloride], the activity at 2 µM (M. mycetomatis [1]) was 4.4%, the IC50 ([2]; Madurella mycetomatis) was 1.32 µM and the MIC ([2]; Madurella mycetomatis) was 2 µM. For the same molecule, the IC50 (M. mycetomatis strain P1; Madurella mycetomatis, P1) was 1.78 µM, the MIC (M. mycetomatis strain P1; Madurella mycetomatis, P1) was > 2 µM and the IC50 (M. mycetomatis strain I1; Madurella mycetomatis, I1) was 0.8 µM. For the same molecule, the MIC (M. mycetomatis strain I1; Madurella mycetomatis, I1) was > 2 µM and the MIC (M. mycetomatis [5]; Madurella mycetomatis, mean/average over strains MM55, P1 and I1) was > 2 µM.

With `C[C@@H]1[C@H](O)[C@@H](C)/C=C/C=C/C=C/C=C/C=C/C=C/C=C/[C@H](O[C@@H]2O[C@H](C)[C@@H](O)[C@H](N)[C@@H]2O)C[C@@H]2O[C@](O)(C[C@@H](O)C[C@@H](O)[C@H](O)CC[C@@H](O)C[C@@H](O)CC(=O)O[C@H]1C)C[C@H](O)[C@H]2C(=O)O` [amphotericin B] the “Survival of M. mycetomatis-infected larvae versus PBS” value ([4]; 1 mg/kg amphotericin B, infected treated control) was “prolonged the survival”.

In the case of `C[CH2][Hg][S]c1ccccc1C(=O)[O-].[Na+]` [Thimerosal], the IC50 [2] is reported as 0.08 µM, the MIC [2] is reported as 0.25 µM and the IC50 (M. mycetomatis strain P1; strain P1) is reported as < 0.03 µM. For the same molecule, the MIC (M. mycetomatis strain P1; strain P1) was 0.03 µM, the IC50 (M. mycetomatis strain I1; strain I1) was 0.04 µM and the MIC (M. mycetomatis strain I1; strain I1) was 0.06 µM. For the same molecule, the “Toxicity in G. mellonella larvae at 20 µM” value ([3]; 20 µL of 20 µM injected, 10 day observation, toxic if more than 20% of larvae died) was “toxicity was noted”, the “Survival of M. mycetomatis-infected larvae versus PBS” value [4, 7] was “No prolonged survival” and the “log-rank P versus PBS treatment” value [4, 7] was 0.5242. The “Average metabolic activity at 2 µM (%)” value (M. mycetomatis [5]) was 1.4%.

With Bleomycin the IC50 [2] was 0.21 µM, the MIC [2] was 0.50 µM and the IC50 (M. mycetomatis strain P1; strain P1) was < 0.03 µM. For the same molecule, the MIC (M. mycetomatis strain P1; strain P1) was 0.03 µM, the IC50 (M. mycetomatis strain I1; strain I1) was 0.2 µM and the MIC (M. mycetomatis strain I1; strain I1) was 0.25 µM. For the same molecule, the “Toxicity in G. mellonella larvae at concentrations as low as 0.5 µM” value ([3]; 10 day observation) was “toxic” and the “Average metabolic activity at 2 µM (%)” value (M. mycetomatis [5]) was 1.6%.

Molecule `Clc1ccc(COC(Cn2ccnc2)c2ccc(Cl)cc2Cl)c(Cl)c1` (stereo not shown) [Miconazole nitrate] has an activity at 2 µM (M. mycetomatis [1]) of 1%, an MIC ([2]; Madurella mycetomatis) of 1 µM and an MIC (M. mycetomatis strain P1; Madurella mycetomatis, P1) of 0.5 µM. It also gave an MIC (M. mycetomatis strain I1; Madurella mycetomatis, I1) of 0.06 µM.

`Fc1ccc(C(c2ccccc2)(c2ccccc2F)n2ccnc2)cc1` (stereo not shown) [Flutrimazole] gave an activity at 2 µM (M. mycetomatis [1]) of 0%, an IC50 ([2]; Madurella mycetomatis) of 0.92 µM and an MIC ([2]; Madurella mycetomatis) of 2 µM (≈ 0.693 µg/mL). For the same molecule, the IC50 (M. mycetomatis strain P1; Madurella mycetomatis, P1) was 0.37 µM, the MIC (M. mycetomatis strain P1; Madurella mycetomatis, P1) was 0.5 µM (≈ 0.173 µg/mL) and the IC50 (M. mycetomatis strain I1; Madurella mycetomatis, I1) was 0.42 µM. The MIC (M. mycetomatis strain I1; Madurella mycetomatis, I1) was 0.5 µM (≈ 0.173 µg/mL).

`CC(=O)N1CCN(c2ccc(OCC3COC(Cn4ccnc4)(c4ccc(Cl)cc4Cl)O3)cc2)CC1` (stereo not shown) [Ketoconazole] gave an activity at 2 µM (M. mycetomatis [1]) of 0.9%, an IC50 ([2]; Madurella mycetomatis) of 0.66 µM and an MIC ([2]; Madurella mycetomatis) of 1 µM (≈ 0.531 µg/mL). For the same molecule, the IC50 (M. mycetomatis strain P1; Madurella mycetomatis, P1) was 0.17 µM, the MIC (M. mycetomatis strain P1; Madurella mycetomatis, P1) was 0.25 µM (≈ 0.133 µg/mL) and the IC50 (M. mycetomatis strain I1; Madurella mycetomatis, I1) was 0.05 µM. The MIC (M. mycetomatis strain I1; Madurella mycetomatis, I1) was 0.06 µM (≈ 0.0319 µg/mL) and the larval survival [6] was “No prolonged larval survival”.

`Clc1ccc(C(Cn2ccnc2)OCc2c(Cl)cccc2Cl)c(Cl)c1` (stereo not shown) [Isoconazole nitrate (Travogen), Isoconazole nitrate] showed an activity at 2 µM (M. mycetomatis [1]) of 1.2%, an IC50 ([2]; Madurella mycetomatis) of 1.42 µM and an MIC ([2]; Madurella mycetomatis) of 2 µM. The IC50 (M. mycetomatis strain P1; Madurella mycetomatis, P1) was 0.06 µM, the MIC (M. mycetomatis strain P1; Madurella mycetomatis, P1) was 0.5 µM and the IC50 (M. mycetomatis strain I1; Madurella mycetomatis, I1) was 0.36 µM. The MIC (M. mycetomatis strain I1; Madurella mycetomatis, I1) was 0.5 µM.

In the case of `CC(=O)[O][Hg][c]1ccccc1` [Phenylmercuric acetate], the IC50 [2] is reported as 1.12 µM, the MIC [2] is reported as 2.00 µM and the IC50 (M. mycetomatis strain P1; strain P1) is reported as < 0.03 µM. The MIC (M. mycetomatis strain P1; strain P1) was 0.03 µM, the IC50 (M. mycetomatis strain I1; strain I1) was 0.45 µM and the MIC (M. mycetomatis strain I1; strain I1) was 0.50 µM. The “Toxicity in G. mellonella larvae at concentrations as low as 0.5 µM” value ([3]; 10 day observation) was “toxic” and the “Average metabolic activity at 2 µM (%)” value (M. mycetomatis [5]) was 2.0%.
